Test results as given in ChEMBL document CHEMBL3400041, “Pyridinic analog of the natural product (-)-spectaline as potential adjuvant for the treatment of central nervous system disorders” (Bioorg Med Chem Lett, 2015).
Activity calls are given as the source filed them. The rule behind the calls is not given here.

Tests used:
Mus musculus [1] = assay: Antischizophrenic activity in mouse assessed as inhibition of apomorphine-induced climbing behavior at 5 mg/kg, po; assay type: functional, organism-based; parameters: dose 5 mg/kg
Mus musculus [2] = assay: Toxicity in mouse assessed as rearing behavior at 10 mg/kg, po by spontaneous locomotor activity test; assay type: organism-based; parameters: dose 10 mg/kg, route oral; conditions: in vivo
Mus musculus [3] = assay: Effect on CNS activity in mouse assessed as reduction in exploratory behaviour at 10 mg/kg, po by spontaneous locomotor activity test; assay type: functional, organism-based; parameters: dose 10 mg/kg; conditions: Central nervous system
Mus musculus [4] = assay: Effect on CNS activity in mouse assessed as reduction in number of groomings at 10 mg/kg, po by spontaneous locomotor activity test; assay type: functional, organism-based; parameters: dose 10 mg/kg; conditions: Central nervous system
Mus musculus [5] = assay: Antischizophrenic activity in mouse assessed as inhibition of apomorphine-induced climbing behavior at 5 to 10 mg/kg, po; assay type: functional, organism-based
Mus musculus [6] = assay: Antidepressant-like activity in mouse assessed as decrease in immobility time at 5 to 10 mg/kg, po by forced swimming test; assay type: functional, organism-based
Mus musculus [7] = assay: Antidepressant-like activity in mouse assessed as decrease in immobility time at 10 mg/kg, po by forced swimming test; assay type: functional, organism-based; parameters: dose 10 mg/kg
Mus musculus [8] = assay: Antischizophrenic activity in mouse assessed as inhibition of apomorphine-induced climbing behavior at 10 mg/kg, po; assay type: functional, organism-based; parameters: dose 10 mg/kg

Compound: CN1CCN(C2=Nc3cc(Cl)ccc3Nc3ccccc32)CC1
- inhibition (Mus musculus [1]): Active

Compound: CCOC(=O)CSc1nc(Cl)ccc1[N+](=O)[O-]
- Activity (Mus musculus [2]): Non-toxic
- Activity (Mus musculus [3]): Active
- Activity (Mus musculus [4]): Active
- inhibition (Mus musculus [5]): inactive
- Activity (Mus musculus [6]): inactive

Compound: CCOC(=O)CSc1ccc([N+](=O)[O-])c(SCC(=O)OCC)n1
- Activity (Mus musculus [2]): Non-toxic
- Activity (Mus musculus [3]): Active
- Activity (Mus musculus [4]): Active
- inhibition (Mus musculus [5]): inactive
- Activity (Mus musculus [6]): inactive

Compound: CN(C)CCCN1c2ccccc2CCc2ccccc21
- Activity (Mus musculus [7]): Active

Compound: CCOC(=O)CSc1ncccc1[N+](=O)[O-]
- Activity (Mus musculus [2]): Non-toxic
- Activity (Mus musculus [3]): Active
- Activity (Mus musculus [4]): Active
- Activity (Mus musculus [6]): Active
- inhibition (Mus musculus [8]): Active
